Reference: patent publication US7312336B2, “Compounds with analgesic effect” (AstraZeneca Canada Inc., priority 1996, dated 2007)
Where a name gives a salt, the structure may show the parent alone.

What was measured:
[1] = target: δ receptor (Homo sapiens, UniProt P41143); settings: background statement; cited from earlier work
[2] = background statement; cited from earlier work

δ receptor, sequence (P41143 whole entry): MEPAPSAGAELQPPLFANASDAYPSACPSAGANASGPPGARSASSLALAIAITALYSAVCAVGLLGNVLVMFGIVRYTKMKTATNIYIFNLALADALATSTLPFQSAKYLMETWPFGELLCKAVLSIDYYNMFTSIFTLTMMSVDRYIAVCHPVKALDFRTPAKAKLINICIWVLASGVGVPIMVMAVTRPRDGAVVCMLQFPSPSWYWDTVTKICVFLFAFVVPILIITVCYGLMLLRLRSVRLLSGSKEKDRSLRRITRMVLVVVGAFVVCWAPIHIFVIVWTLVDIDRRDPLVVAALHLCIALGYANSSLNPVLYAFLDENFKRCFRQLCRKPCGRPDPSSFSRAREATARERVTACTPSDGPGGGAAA

SMILES	melting point	selectivity for the δ receptor vs. μ receptor binding [1] [fold]	analgesic activity [2]
CCN(CC)C(=O)c1ccc(C(O)(c2cccc3cccnc23)C2CCN(C(=O)OC(C)(C)C)CC2)cc1 (stereo not drawn)	100 to 105 °C		
CCN(CC)C(=O)c1ccc(C(O)(c2cccc(OC)c2)C2CCN(C(=O)OC(C)(C)C)CC2)cc1 (stereo not drawn)	95 to 103 °C		
CCN(CC)C(=O)c1ccc(C(=C2CCN(C3CCCCC3)CC2)c2ccccc2)cc1 (as salt: HCl)	105 to 109 °C		
CCN(CC)C(=O)c1ccc(C(=C2CCN(Cc3ccc(OC)cc3)CC2)c2ccccc2)cc1 (as salt: HCl)	100 to 110 °C		
CCN(CC)C(=O)c1ccc(C(=C2CCN(Cc3ccc(Cl)cc3Cl)CC2)c2ccccc2)cc1 (as salt: HCl)	95 to 110 °C		
CCN(CC)C(=O)c1ccc(C(=C2CCNCC2)c2cccc3cccnc23)cc1 (as salt: HCl)	> 170 °C (dec.)		
CCN(CC)C(=O)c1ccc(C(=C2CCNCC2)c2cccc(OC)c2)cc1 (as salt: HCl)	> 90 °C (dec.)		
CCN(CC)C(=O)c1ccc(C(=C2CCN(Cc3ccccc3)CC2)c2cccc(OC)c2)cc1 (as salt: HCl)	100 to 110 °C		
CCN(CC)C(=O)c1ccc(C(=C2CCN(Cc3ccccc3)CC2)c2ccccc2)cc1 (as salt: HCl)	230 to 245 °C		
CCN(CC)C(=O)c1ccc(C(=C2CCN(Cc3ccccc3)CC2)c2ccc(Cl)cc2)cc1 (as salt: salt)	100 to 110 °C		
Oc1ccc2c3c1O[C@H]1c4[nH]c5ccccc5c4C[C@@]4(O)[C@@H](C2)N(CC2CC2)CC[C@]314 [naltrindole]		< 10	no analgesic activity
